From patent publication US20230278972A1, “SUBSTITUTED HALOALKYL SULFONANILIDE HERBICIDES” (FMC Corporation, priority 2020, published 2023)

Legend:
Format in all cases: in vivo
[1] = system: ragweed (common ragweed, Ambrosia artemisiifolia); assay: Test A preemergence, ragweed; settings: Preemergence; for Ragweed plant response rating: visual injury on 0 to 100 scale (0 no effect, 100 complete control), approximately 10 days; for Plant response rating, Ragweed: 0 to 100 scale (0 no effect, 100 complete control)
Method in brief: (§1)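 Test chemicals, formulated in a non-phytotoxic solvent mixture with surfactant, were sprayed postemergence on plants 2 to 10 cm tall at the one- to two-leaf stage. Preemergence treatment was a directed soil spray onto freshly seeded pots. Both used a loam soil and sand blend.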

[2] = system: blackgrass (Alopecurus myosuroides); assay: Test A postemergence, blackgrass; settings: Postemergence, 0 to 100 scale (0 no effect, 100 complete control); for Blackgrass plant response rating: 500 g ai/ha, visual injury vs untreated controls after approx. 10 days
Method in brief: as §1

[3] = system: galium (catchweed bedstraw, Galium aparine); assay: Test A postemergence, galium; settings: Postemergence, 0 to 100 scale (0 no effect, 100 complete control); for Galium plant response rating: 500 g ai/ha, visual injury vs untreated controls after approx. 10 days
Method in brief: (§2)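 After sowing into a sand-amended loam, pots for the preemergence test were treated by spraying directly onto soil. In parallel, seedlings at the one- to two-leaf stage and 2 to 10 cm tall were treated postemergence with the identical surfactant-containing formulation.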

kochia (Bassia scoparia) [4] = assay: Test A postemergence, kochia; settings: Postemergence, 0 to 100 scale (0 no effect, 100 complete control); for Kochia plant response rating: 500 g ai/ha, visual injury vs untreated controls after approx. 10 days
Method in brief: as §1

[5] = system: wheat (Triticum aestivum); assay: Test A postemergence, wheat; settings: Postemergence, 0 to 100 scale (0 no effect, 100 complete control); for Wheat plant response rating: 500 g ai/ha, visual injury vs untreated controls after approx. 10 days
Method in brief: as §2

[6] = system: pigweed (Amaranthus retroflexus); assay: Test A postemergence, pigweed; settings: Postemergence, 0 to 100 scale (0 no effect, 100 complete control); for Pigweed plant response rating: 500 g ai/ha, visual injury vs untreated controls after approx. 10 days
Method in brief: as §1

[7] = system: Ryegrass, Italian (Italian ryegrass, Lolium multiflorum); assay: Test A postemergence, Ryegrass, Italian; settings: Postemergence, 0 to 100 scale (0 no effect, 100 complete control); for Ryegrass, Italian plant response rating: 500 g ai/ha, visual injury vs untreated controls after approx. 10 days
Method in brief: as §1

[8] = system: Foxtail, Giant (giant foxtail, Setaria faberi); assay: Test A preemergence, Foxtail, Giant; settings: Preemergence; for Foxtail, Giant plant response rating: visual injury on 0 to 100 scale (0 no effect, 100 complete control), approximately 10 days; for Plant response rating, Foxtail, Giant: 0 to 100 scale (0 no effect, 100 complete control)
Method in brief: as §1

[9] = system: barnyardgrass (Echinochloa crus-galli); assay: Test A preemergence, barnyardgrass; settings: Preemergence; for Barnyardgrass plant response rating: visual injury on 0 to 100 scale (0 no effect, 100 complete control), approximately 10 days; for Plant response rating, Barnyardgrass: 0 to 100 scale (0 no effect, 100 complete control)
Method in brief: as §1

corn (Zea mays) = assay: Test A postemergence, corn; settings: Postemergence, 0 to 100 scale (0 no effect, 100 complete control); for Corn plant response rating: 500 g ai/ha, visual injury vs untreated controls after approx. 10 days
Method in brief: as §1

[10] = system: barnyardgrass (Echinochloa crus-galli); assay: Test A postemergence, barnyardgrass; settings: Postemergence, 0 to 100 scale (0 no effect, 100 complete control); for Barnyardgrass plant response rating: 500 g ai/ha, visual injury vs untreated controls after approx. 10 days
Method in brief: as §2

[11] = system: Ryegrass, Italian (Italian ryegrass, Lolium multiflorum); assay: Test A preemergence, Ryegrass, Italian; settings: Preemergence; for Ryegrass, Italian plant response rating: visual injury on 0 to 100 scale (0 no effect, 100 complete control), approximately 10 days; for Plant response rating, Ryegrass, Italian: 0 to 100 scale (0 no effect, 100 complete control)
Method in brief: as §1

[12] = system: pigweed (Amaranthus retroflexus); assay: Test A preemergence, pigweed; settings: for Pigweed plant response rating: visual injury on 0 to 100 scale (0 no effect, 100 complete control), approximately 10 days; for Plant response rating, Pigweed: 0 to 100 scale (0 no effect, 100 complete control)
Method in brief: as §2

[13] = system: Foxtail, Giant (giant foxtail, Setaria faberi); assay: Test A postemergence, Foxtail, Giant; settings: Postemergence, 0 to 100 scale (0 no effect, 100 complete control); for Foxtail, Giant plant response rating: 500 g ai/ha, visual injury vs untreated controls after approx. 10 days
Method in brief: as §1

kochia (Bassia scoparia) [14] = assay: Test A preemergence, kochia; settings: Preemergence; for Kochia plant response rating: visual injury on 0 to 100 scale (0 no effect, 100 complete control), approximately 10 days; for Plant response rating, Kochia: 0 to 100 scale (0 no effect, 100 complete control)
Method in brief: as §1

[15] = system: ragweed (common ragweed, Ambrosia artemisiifolia); assay: Test A postemergence, ragweed; settings: Postemergence, 0 to 100 scale (0 no effect, 100 complete control); for Ragweed plant response rating: 500 g ai/ha, visual injury vs untreated controls after approx. 10 days
Method in brief: as §1

[16] = 125 g ai/ha, visual injury approx. 10 days
[17] = 125 g ai/ha, visual injury, approx. 10 days
[18] = 1000 g ai/ha, visual injury, approx. 10 days

COc1cc(C)c(NS(=O)(=O)C(F)(F)F)cc1-c1ccnn(C)c1=O [Compound 81]
Ragweed plant response rating ([1]; 125 g ai/ha): 30 | Plant response rating, Ragweed ([1]; 500 g ai/ha): 40 | Plant response rating, Blackgrass [2, 16]: 0 | Blackgrass plant response rating [2]: 70 | Plant response rating, Galium [3, 16]: 80 | Galium plant response rating [3]: 90 | Plant response rating, Kochia (kochia (Bassia scoparia) [4]; [16]): 40 | Kochia plant response rating (kochia (Bassia scoparia) [4]): 50 | Plant response rating, Wheat [5, 16]: 40 | Wheat plant response rating [5]: 60 | Plant response rating, Pigweed [6, 16]: 20 | Pigweed plant response rating [6]: 60 | Plant response rating, Ryegrass, Italian [7, 16]: 0 | Ryegrass, Italian plant response rating [7]: 60 | Foxtail, Giant plant response rating ([8]; 125 g ai/ha): 100 | Plant response rating, Foxtail, Giant ([8]; 500 g ai/ha): 100 | Barnyardgrass plant response rating ([9]; 125 g ai/ha): 90 | Plant response rating, Barnyardgrass ([9]; 500 g ai/ha): 90 | Plant response rating, Corn (corn (Zea mays); [16]): 0 | Corn plant response rating (corn (Zea mays)): 20 | Plant response rating, Barnyardgrass [10, 16]: 70 | Barnyardgrass plant response rating [10]: 80 | Ryegrass, Italian plant response rating ([11]; 125 g ai/ha): 30 | Plant response rating, Ryegrass, Italian ([11]; 500 g ai/ha): 50 | Pigweed plant response rating ([12]; 125 g ai/ha): 30 | Plant response rating, Pigweed ([12]; 500 g ai/ha): 100 | Plant response rating, Foxtail, Giant [13, 16]: 90 | Foxtail, Giant plant response rating [13]: 90 | Kochia plant response rating (kochia (Bassia scoparia) [14]; 125 g ai/ha): 0 | Plant response rating, Kochia (kochia (Bassia scoparia) [14]; 500 g ai/ha): 80 | Plant response rating, Ragweed [15, 16]: 20 | Ragweed plant response rating [15]: 60

Cc1cc(C)c(C(=O)N2CCC(CC(F)(F)F)CC2)cc1NS(=O)(=O)C(F)(F)F [Compound 234]
Plant response rating, Ragweed [1, 17]: 80 | Ragweed plant response rating ([1]; 500 g ai/ha): 90 | Plant response rating, Blackgrass ([2]; 125 g ai/ha): 0 | Blackgrass plant response rating [2]: 0 | Plant response rating, Galium ([3]; 125 g ai/ha): 10 | Galium plant response rating [3]: 80 | Plant response rating, Kochia (kochia (Bassia scoparia) [4]; 125 g ai/ha): 0 | Kochia plant response rating (kochia (Bassia scoparia) [4]): 0 | Plant response rating, Wheat ([5]; 125 g ai/ha): 0 | Wheat plant response rating [5]: 0 | Plant response rating, Pigweed ([6]; 125 g ai/ha): 30 | Pigweed plant response rating [6]: 60 | Plant response rating, Ryegrass, Italian ([7]; 125 g ai/ha): 0 | Ryegrass, Italian plant response rating [7]: 0 | Plant response rating, Foxtail, Giant [8, 17]: 50 | Foxtail, Giant plant response rating ([8]; 500 g ai/ha): 50 | Plant response rating, Barnyardgrass [9, 17]: 80 | Plant response rating, Barnyardgrass ([9]; 500 g ai/ha): 80 | Plant response rating, Corn (corn (Zea mays); 125 g ai/ha): 0 | Corn plant response rating (corn (Zea mays)): 0 | Plant response rating, Barnyardgrass ([10]; 125 g ai/ha): 60 | Barnyardgrass plant response rating [10]: 70 | Plant response rating, Ryegrass, Italian [11, 17]: 20 | Ryegrass, Italian plant response rating ([11]; 500 g ai/ha): 50 | Plant response rating, Pigweed [12, 17]: 50 | Pigweed plant response rating ([12]; 500 g ai/ha): 100 | Plant response rating, Foxtail, Giant ([13]; 125 g ai/ha): 0 | Foxtail, Giant plant response rating [13]: 50 | Plant response rating, Kochia (kochia (Bassia scoparia) [14]; [17]): 0 | Kochia plant response rating (kochia (Bassia scoparia) [14]; 500 g ai/ha): 30 | Plant response rating, Ragweed ([15]; 125 g ai/ha): 30 | Ragweed plant response rating [15]: 50

Cc1cc(C)c(-n2ncccc2=O)cc1NS(=O)(=O)C(F)(F)F [Compound 83]
Ragweed plant response rating ([1]; 125 g ai/ha): 0 | Plant response rating, Ragweed ([1]; 500 g ai/ha): 20 | Plant response rating, Blackgrass [2, 16]: 0 | Blackgrass plant response rating [2]: 0 | Plant response rating, Galium [3, 16]: 60 | Galium plant response rating [3]: 80 | Plant response rating, Kochia (kochia (Bassia scoparia) [4]; [16]): 0 | Kochia plant response rating (kochia (Bassia scoparia) [4]): 20 | Plant response rating, Wheat [5, 16]: 0 | Wheat plant response rating [5]: 0 | Plant response rating, Pigweed [6, 16]: 40 | Pigweed plant response rating [6]: 50 | Plant response rating, Ryegrass, Italian [7, 16]: 0 | Ryegrass, Italian plant response rating [7]: 0 | Foxtail, Giant plant response rating ([8]; 125 g ai/ha): 10 | Plant response rating, Foxtail, Giant ([8]; 500 g ai/ha): 80 | Barnyardgrass plant response rating ([9]; 125 g ai/ha): 70 | Plant response rating, Barnyardgrass ([9]; 500 g ai/ha): 80 | Plant response rating, Corn (corn (Zea mays); [16]): 0 | Corn plant response rating (corn (Zea mays)): 30 | Plant response rating, Barnyardgrass [10, 16]: 20 | Barnyardgrass plant response rating [10]: 70 | Ryegrass, Italian plant response rating ([11]; 125 g ai/ha): 30 | Plant response rating, Ryegrass, Italian ([11]; 500 g ai/ha): 50 | Pigweed plant response rating ([12]; 125 g ai/ha): 50 | Plant response rating, Pigweed ([12]; 500 g ai/ha): 90 | Plant response rating, Foxtail, Giant [13, 16]: 0 | Foxtail, Giant plant response rating [13]: 40 | Kochia plant response rating (kochia (Bassia scoparia) [14]; 125 g ai/ha): 60 | Plant response rating, Kochia (kochia (Bassia scoparia) [14]; 500 g ai/ha): 70 | Plant response rating, Ragweed [15, 16]: 10 | Ragweed plant response rating [15]: 60

COC1CCN(C(=O)c2cc(NS(=O)(=O)C(F)(F)F)c(C)cc2C)CC1 [Compound 19]
Plant response rating, Ragweed ([1]; 1000 g ai/ha): 90 | Plant response rating, Blackgrass [2, 18]: 60 | Plant response rating, Galium [3, 18]: 40 | Plant response rating, Kochia (kochia (Bassia scoparia) [4]; [18]): 70 | Plant response rating, Wheat [5, 18]: 50 | Plant response rating, Pigweed [6, 18]: 80 | Plant response rating, Ryegrass, Italian [7, 18]: 50 | Plant response rating, Foxtail, Giant ([8]; 1000 g ai/ha): 100 | Plant response rating, Barnyardgrass ([9]; 1000 g ai/ha): 100 | Plant response rating, Corn (corn (Zea mays); [18]): 50 | Plant response rating, Barnyardgrass [10, 18]: 80 | Plant response rating, Ryegrass, Italian ([11]; 1000 g ai/ha): 90 | Plant response rating, Pigweed ([12]; 1000 g ai/ha): 100 | Plant response rating, Foxtail, Giant [13, 18]: 90 | Plant response rating, Kochia (kochia (Bassia scoparia) [14]; 1000 g ai/ha): 90 | Plant response rating, Ragweed [15, 18]: 80
